# Reference: patent publication US9981950B2, “Triazoles as NR2B receptor inhibitors” (Janssen Pharmaceuticals, Inc., priority 2014, dated 2018)
# Tests used:
# hERG-receptor = hERG-receptor (Homo sapiens (Human), UniProt Q12809); assay: HERGBD: inhibition of specific 3H-Dofetilide binding to the hERG-receptor; conditions: HEK cell membranes with human ERG, Hill-plot 2-parameter-model
# Method: Inhibition of Specific Binding to the hERG-Receptor (HERGBD)
# A HEK cell line with stable transfected human ERG receptor was used for the assay. The cells were grown adherently and maintained in DULBECCOS' MEM medium with 10% FBS, 1% non-essential amino acids, 1% Penicillin/Streptomycin and 400 μg/ml G418 (Calbiochem).
# For binding assays and membrane preparations the cell culture medium was removed, cells were washed with PBS. Crude membranes for radioligand binding experiments were prepared by scraping the cells off the dishes in ice cold 20 mM HEPES/0.1 mM KCl/pH 7.2. The cell suspension was homogenized on ice (Ultra turrax, 3×20 sec.) and the homogenate was spun for 10 min (1° C., 1000 g, OPTIMA, SW28, 2800 U/min). The supernatant was than centrifuged for 40 min at 100000 g (1° C., OPTIMA, SW28, 23000 U/min). The membrane pellet was resuspended in 20 mM HEPES/0.1 mM KCl/pH 7.2, frozen and stored at −80° C.
# After thawing on the day of the assay, the membrane suspension was diluted further with 20 mM HEPES/0.1 mM KCl/pH 7.2.
# The incubation mixture of 200 μl contained 1.5 nmol/l 3H-Dofetilide, optimized amount of membrane preparation, 20 mM HEPES/0.1 mM KCl/(pH 7.2) and inhibitor in 1% DMSO. Nonspecific binding was estimated in the presence of […] Dofetilide. The samples were incubated for 90 min. at RT.
# Binding was terminated by filtration of the incubated membrane preparations using Filtermat B (Pharmacia, Uppsala Sweden) and a Micro Cell Harvester (Skatron, Lier, Norway). The Filtermat B had been presoaked with 1% polyethylenimine and carefully washed with 0.05 M Tris/HCl-buffer pH=7.7 after the filtration to separate free and bound radioactivity. The filters were counted in a scintillation counter (Betaplate 1205, Berthold, Wildbad, Germany) in order to determine the specific binding of [^3H]-Dofetilide.
# The optimal amount of membrane preparation in the assay was determined and optimized for each membrane preparation separately in front of using the membranes in compound testing.
# For pipetting of the incubation mixture we routinely use the robot Biomek2000 (Fa. Beckman).
# rat NR1/NR2B receptor = rat NR1/NR2B receptor (Rattus norvegicus (Rat), UniProt P35439+Q00960); assay: RRNR2BB: inhibition of specific binding to the rat NR1/NR2B receptor; conditions: [3H]-Ifenprodil binding, rat brain membranes, Hill-plot 2-parameter-model
# Method: RRNR2BB—Inhibition of Specific Binding to the Rat NR1/NR2B Receptor
# Male Wistar rats (180 to 200 g) were killed by suffocation in a CO2 chamber for two minutes. Whole brains without cerebellum were removed and dissected on ice, placed into closed vials and stored at −70° C.
# Membrane fractions were prepared and tested using standard techniques. At the time of the assay, 1 g of the brains were placed into 25 ml of 50 mM Tris/10 mM EDTA buffer, pH=7.1, (25 vol. per g of original tissue) and was homogenized for 30 sec at 20000 U/min with an Ultraturrax T25 (Jahnke & Kunkel, IKA-Labortechnik, Staufen, Germany). The homogenate was centrifuged at 4° C. for 10 min at 48000 g (OPTIMA L-70, Beckman, Palo Alto, Calif. 94304, USA). The supernatant was discarded and the pellet was homogenized on ice for 30 sec at 20000 U/min with an Ultraturrax and again centrifuged at 48000 g for 30 minutes at 4° C. The resultant pellet was resuspended in 25 ml of 50 mM Tris/10 mM EDTA buffer, homogenized for 30 sec with an Ultraturrax, aliquoted, frozen at −70° C. and stored until use
# After thawing on the day of the assay, a 5 ml membrane aliquote was centrifuged at 48000 g for 30 min at 4° C. The pellet was resuspended in 5 ml of 5 mM Tris/1 mM EDTA buffer, pH=7.4, homogenized for 30 sec at 20000 U/min with an Ultraturrax and centrifuged at 48000 g for 30 min at 4° C. This step was repeated twice. The final pellet was homogenized in 5 ml of 5 mM Tris/mM EDTA buffer at 4° C. with an Ultraturrax and used for the Ifenprodil-binding assay.
# Nonspecific binding was estimated in the presence of 10 M CP101.606. The samples were incubated for 60 min. at 4° C.
# Binding was terminated by filtration of the incubated membrane preparations using Filtermat B (Pharmacia, Uppsala Sweden) and a Micro Cell Harvester (Skatron, Lier, Norway). The Filtermat B had been presoaked with 1% polyethylenimine and carefully washed with […] Tris/HCl-buffer pH=7.7 after the filtration to separate free and bound radioactivity.
# For pipetting of the incubation mixture the robot Biomek2000 (Fa. Beckman) was used.
# The IC50 values in the tables below were determined using the Hill-plot, 2-parameter-model.
# rat NR1/NR2B receptor, sequence (Q00960 27-1482, other chains not shown): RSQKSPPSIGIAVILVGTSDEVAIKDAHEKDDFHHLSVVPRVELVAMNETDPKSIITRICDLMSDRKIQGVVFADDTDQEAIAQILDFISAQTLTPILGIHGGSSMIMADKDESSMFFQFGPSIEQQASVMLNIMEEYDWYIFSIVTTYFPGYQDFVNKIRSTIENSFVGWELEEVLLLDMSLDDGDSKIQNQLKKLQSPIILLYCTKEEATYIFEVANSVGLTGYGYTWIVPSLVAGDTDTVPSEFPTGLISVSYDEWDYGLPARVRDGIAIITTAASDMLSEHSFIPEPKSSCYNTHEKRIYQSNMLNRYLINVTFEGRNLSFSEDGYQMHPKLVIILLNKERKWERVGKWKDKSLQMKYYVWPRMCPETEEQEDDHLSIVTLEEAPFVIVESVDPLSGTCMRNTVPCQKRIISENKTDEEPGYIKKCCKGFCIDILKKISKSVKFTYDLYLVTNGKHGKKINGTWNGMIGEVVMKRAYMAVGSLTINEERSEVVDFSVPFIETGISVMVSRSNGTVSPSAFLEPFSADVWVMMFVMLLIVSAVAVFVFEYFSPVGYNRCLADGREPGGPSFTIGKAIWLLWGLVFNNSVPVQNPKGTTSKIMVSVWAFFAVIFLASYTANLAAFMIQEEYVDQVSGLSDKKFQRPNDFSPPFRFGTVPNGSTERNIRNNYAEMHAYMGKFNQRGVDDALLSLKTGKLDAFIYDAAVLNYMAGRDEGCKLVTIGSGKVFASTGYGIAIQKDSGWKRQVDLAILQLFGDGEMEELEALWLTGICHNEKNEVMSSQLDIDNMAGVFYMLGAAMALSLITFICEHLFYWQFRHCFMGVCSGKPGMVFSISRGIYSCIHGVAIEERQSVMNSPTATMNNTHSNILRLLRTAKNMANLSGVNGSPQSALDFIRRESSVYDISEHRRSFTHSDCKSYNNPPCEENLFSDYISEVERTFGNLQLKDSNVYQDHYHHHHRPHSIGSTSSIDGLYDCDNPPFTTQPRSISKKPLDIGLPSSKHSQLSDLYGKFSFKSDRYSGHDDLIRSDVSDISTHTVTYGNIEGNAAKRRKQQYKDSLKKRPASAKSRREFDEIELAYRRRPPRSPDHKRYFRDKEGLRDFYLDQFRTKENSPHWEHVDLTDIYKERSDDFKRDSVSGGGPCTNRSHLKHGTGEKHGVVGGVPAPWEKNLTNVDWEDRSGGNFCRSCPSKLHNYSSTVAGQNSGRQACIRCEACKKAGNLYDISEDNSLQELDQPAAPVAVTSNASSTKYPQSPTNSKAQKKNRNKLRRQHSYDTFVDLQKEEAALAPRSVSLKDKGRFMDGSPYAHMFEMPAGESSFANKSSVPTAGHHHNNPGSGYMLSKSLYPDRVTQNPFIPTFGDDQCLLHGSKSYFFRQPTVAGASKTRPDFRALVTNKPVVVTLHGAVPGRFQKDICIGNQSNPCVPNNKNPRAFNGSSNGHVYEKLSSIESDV
# hERG-receptor, sequence (Q12809 whole entry): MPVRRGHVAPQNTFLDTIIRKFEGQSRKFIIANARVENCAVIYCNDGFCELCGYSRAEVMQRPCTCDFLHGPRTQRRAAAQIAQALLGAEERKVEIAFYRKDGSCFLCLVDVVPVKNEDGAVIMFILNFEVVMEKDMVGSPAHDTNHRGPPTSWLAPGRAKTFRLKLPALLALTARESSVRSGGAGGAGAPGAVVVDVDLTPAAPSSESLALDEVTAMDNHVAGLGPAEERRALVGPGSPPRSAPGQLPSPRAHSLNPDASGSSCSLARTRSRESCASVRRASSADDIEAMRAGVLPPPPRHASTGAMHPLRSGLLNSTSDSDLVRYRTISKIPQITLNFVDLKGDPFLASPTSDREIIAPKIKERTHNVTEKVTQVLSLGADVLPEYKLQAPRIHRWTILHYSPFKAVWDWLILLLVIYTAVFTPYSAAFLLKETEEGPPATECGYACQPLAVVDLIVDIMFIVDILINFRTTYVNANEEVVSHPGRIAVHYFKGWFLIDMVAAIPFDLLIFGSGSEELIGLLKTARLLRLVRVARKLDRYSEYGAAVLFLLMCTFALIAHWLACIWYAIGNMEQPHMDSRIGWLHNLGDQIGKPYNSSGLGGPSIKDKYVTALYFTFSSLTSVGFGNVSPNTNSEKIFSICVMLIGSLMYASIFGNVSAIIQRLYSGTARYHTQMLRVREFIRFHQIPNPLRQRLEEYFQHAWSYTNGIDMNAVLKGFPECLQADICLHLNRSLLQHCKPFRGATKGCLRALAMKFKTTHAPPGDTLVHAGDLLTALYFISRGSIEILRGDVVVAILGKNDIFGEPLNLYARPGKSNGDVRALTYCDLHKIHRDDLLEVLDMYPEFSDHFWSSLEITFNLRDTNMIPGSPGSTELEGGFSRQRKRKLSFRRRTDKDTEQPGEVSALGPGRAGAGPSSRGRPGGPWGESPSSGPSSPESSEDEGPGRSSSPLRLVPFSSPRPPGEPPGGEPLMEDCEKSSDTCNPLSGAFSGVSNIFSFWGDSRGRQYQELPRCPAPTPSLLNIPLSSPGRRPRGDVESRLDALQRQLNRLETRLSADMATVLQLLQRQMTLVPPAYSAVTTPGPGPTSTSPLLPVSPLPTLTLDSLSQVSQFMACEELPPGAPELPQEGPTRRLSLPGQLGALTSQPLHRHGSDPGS
IC50 (rat NR1/NR2B receptor) [µM],Compound,IC50 (hERG-receptor) [µM]
> 10,"CC(C)c1ncnn1Cc1cn(-c2ccc(Cl)cc2)nn1 [Example 7, 1-(4-Chloro-phenyl)-4-(5-isopropyl-[1,2,4]triazol-1-ylmethyl)-1H-[1,2,3]triazole]",> 100
> 10,"CC(C)(C)c1ncnn1Cc1cn(-c2ccc(Cl)cc2)nn1 [Example 19, 4-(5-tert-Butyl-[1,2,4]triazol-1-ylmethyl)-1-(4-chloro-phenyl)-1H-[1,2,3]triazole]",33.8
,"CC(C)(C)c1nccn1Cc1cn(-c2ccc(Cl)cc2)nn1 [Example 30, 4-(2-tert-Butyl-imidazol-1-ylmethyl)-1-(4-chloro-phenyl)-1H-[1,2,3]triazole]",3.58
> 10,"CCc1ncnn1Cc1cn(-c2ccc(Cl)cc2)nn1 [Example 5, 1-(4-Chloro-phenyl)-4-(5-ethyl-[1,2,4]triazol-1-ylmethyl)-1H-[1,2,3]triazole]",194
> 10,"Cc1nc(CO)nn1Cc1cn(-c2ccccc2)nn1 [Example 48, 4-(3-Hydroxymethyl-5-methyl-[1,2,4]triazol-1-ylmethyl)-1-phenyl-1H-[1,2,3]triazole]",
,"OCCc1nccn1Cc1cn(-c2ccc(Cl)c(OC(F)F)c2)nn1 [Example 98, 1-(4-Chloro-3-difluoromethoxy-phenyl)-4-[2-(2-hydroxy-ethyl)-imidazol-1-ylmethyl]-1H-[1,2,3]triazole]",17.1
,"CCCc1nccn1Cc1cn(-c2ccc(F)c(Cl)c2)nn1 [Example 43, 1-(3-Chloro-4-fluoro-phenyl)-4-(2-propyl-imidazol-1-ylmethyl)-1H-[1,2,3]triazole]",2.72
> 10,"CCCc1ncn(Cc2cn(-c3ccc(Cl)cc3)nn2)n1 [Example 3, 1-(4-Chloro-phenyl)-4-(3-propyl-[1,2,4]triazol-1-ylmethyl)-1H-[1,2,3]triazole]",0.305
> 10,"CC(C)c1ncn(Cc2cn(-c3ccc(Cl)cc3)nn2)n1 [Example 4, 1-(4-Chloro-phenyl)-4-(3-isopropyl-[1,2,4]triazol-1-ylmethyl)-1H-[1,2,3]triazole]",
,"CS(=O)(=O)c1cccc(-n2cc(Cn3ccnc3CCO)nn2)c1 [Example 79, 4-[2-(2-Hydroxy-ethyl)-imidazol-1-ylmethyl]-1-(3-methanesulfonyl-phenyl)-1H-[1,2,3]triazole]",> 100
> 10,"Cc1nc(CO)n(Cc2cn(-c3ccccc3)nn2)n1 [Example 47, 4-(5-Hydroxymethyl-3-methyl-[1,2,4]triazol-1-ylmethyl)-1-phenyl-1H-[1,2,3]triazole]",
> 1,"CCCc1ncnn1Cc1cn(-c2ccc(Cl)cc2)nn1 [Example 2, 1-(4-Chloro-phenyl)-4-(5-propyl-[1,2,4]triazol-1-ylmethyl)-1H-[1,2,3]triazole]",0.032
> 10,"Clc1ccc(-n2cc(Cn3cnc(C4CC4)n3)nn2)cc1 [Example 13, 1-(4-Chloro-phenyl)-4-(3-cyclopropyl-[1,2,4]triazol-1-ylmethyl)-1H-[1,2,3]triazole]",45.1
> 10,"CC(C)(C)c1ncn(Cc2cn(-c3ccc(Cl)cc3)nn2)n1 [Example 20, 4-(3-tert-Butyl-[1,2,4]triazol-1-ylmethyl)-1-(4-chloro-phenyl)-1H-[1,2,3]triazole]",35.6
,"CC(C)c1nccn1Cc1cn(-c2cccc(OC(F)(F)F)c2)nn1 [Example 73, 4-(2-Isopropyl-imidazol-1-ylmethyl)-1-(3-trifluoromethoxy-phenyl)-1H-[1,2,3]triazole]",13
> 10,"Cc1nncn1Cc1cn(-c2ccc(Cl)cc2)nn1 [Example 31, 1-(4-Chloro-phenyl)-4-(3-methyl-[1,2,4]triazol-4-ylmethyl)-1H-[1,2,3]triazole]",22.4
> 10,"Clc1ccc(-n2cc(Cn3cnc(C4CCCC4)n3)nn2)cc1 [Example 15, 1-(4-Chloro-phenyl)-4-(3-cyclopentyl-[1,2,4]triazol-1-ylmethyl)-1H-[1,2,3]triazole]",87.9
,"Cc1cc(-n2cc(Cn3ccnc3C3CC3)nn2)ccc1Cl [Example 65, 1-(4-Chloro-3-methyl-phenyl)-4-(2-cyclopropyl-imidazol-1-ylmethyl)-1H-[1,2,3]triazole]",3.87
,"Clc1ccc(-n2cc(Cn3ccnc3Cl)nn2)cc1 [Example 26, 4-(2-Chloro-imidazol-1-ylmethyl)-1-(4-chloro-phenyl)-1H-[1,2,3]triazole]",12.1
> 10,"Clc1ccc(-n2cc(Cn3nc(C4CC4)nc3C3CC3)nn2)cc1 [Example 10, 1-(4-Chloro-phenyl)-4-(3,5-dicyclopropyl-[1,2,4]triazol-1-ylmethyl)-1-[1,2,3]triazole]",0.0039
> 10,"Clc1ccc(-n2cc(Cn3cnc(C4CCC4)n3)nn2)cc1 [Example 12, 1-(4-Chloro-phenyl)-4-(3-cyclobutyl-[1,2,4]triazol-1-ylmethyl)-1H-[1,2,3]triazole]",11.8
,"Fc1cc(-n2cc(Cn3ccnc3C3CC3)nn2)ccc1Cl [Example 61, 1-(4-Chloro-3-fluoro-phenyl)-4-(2-cyclopropyl-imidazol-1-ylmethyl)-1H-[1,2,3]triazole]",3.62
> 10,"Cc1nc(C2CCC2)nn1Cc1cn(-c2ccc(Cl)cc2)nn1 [Example 22, 1-(4-Chloro-phenyl)-4-(3-cyclobutyl-5-methyl-[1,2,4]triazol-1-ylmethyl)-1H-[1,2,3]triazole]",
,"CCCCc1nccn1Cc1cn(-c2ccc(F)c(C(F)F)c2)nn1 [Example 86, 1-(3-Difluoromethyl-4-fluoro-phenyl)-4-(2-butyl-imidazol-1-ylmethyl)-1H-[1,2,3]triazole]",3.24
> 10,"Cc1ncn(Cc2cn(-c3ccc(Cl)cc3)nn2)n1 [Example 9, 1-(4-Chloro-phenyl)-4-(3-methyl-[1,2,4]triazol-1-ylmethyl)-1H-[1,2,3]triazole]",46.9
> 10,"CCc1ncn(Cc2cn(-c3ccc(Cl)cc3)nn2)n1 [Example 6, 1-(4-Chloro-phenyl)-4-(3-ethyl-[1,2,4]triazol-1-ylmethyl)-1H-[1,2,3]triazole]",54.9
> 10,"Clc1ccc(-n2cc(Cn3ncnc3C3CC3)nn2)cc1 [Example 16, 1-(4-Chloro-phenyl)-4-(5-cyclopropyl-[1,2,4]triazol-1-ylmethyl)-1H-[1,2,3]triazole]",> 100
> 1,"Clc1ccc(-n2cc(Cn3ncnc3C3CCC3)nn2)cc1 [Example 11, 1-(4-Chloro-phenyl)-4-(5-cyclobutyl-[1,2,4]triazol-1-ylmethyl)-1H-[1,2,3]triazole]",> 100
> 10,"FC(F)(F)c1ncn(Cc2cn(-c3ccc(Cl)cc3)nn2)n1 [Example 17, 1-(4-Chloro-phenyl)-4-(3-trifluoromethyl-[1,2,4]triazol-1-ylmethyl)-1H-[1,2,3]triazole]",25.6
